Among the data in US20230081426A1, “COMPOUNDS AND METHODS FOR KRAS MODULATION AND INDICATIONS THEREFOR” (Plexxikon Inc., priority 2020, published 2023) are IC50 values, retold here.

The first assay addresses T1, G12D-mutant human KRAS (amino acid residues 1-188) (Homo sapiens, UniProt P01116, G12D).
T1 construct: G12D or G12C-mutant human KRAS (amino acid residues 1-188) with FLAG tag; made in house; host or cells: E. coli
Put plainly: KRAS Binding Disruption Assay (AlphaScreen; biotinylated KRpep-2d analogue or RAF1-RBD), G12D. The settings on record: KRAS G12D; geometric mean; read-out: KRAS GMean IC50 (uM) MUTATION: G12D. An outline of the steps:
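Compounds are titrated against 5-20 nM mutant KRAS and 5-20 nM of either a biotinylated KRpep-2d analogue or RAF1-RBD, incubated 1 h at 25° C. Disruption is detected as reduced Alpha signal after 1 h with donor and acceptor beads at 10 μg/mL.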
A general note: Bead proximity is the source of the signal in Alpha formats.
Consider `Cc1cccc2cccc(-c3ccc4c(N5CC6CCC(C5)N6C(=O)CC#N)nc(OC[C@@H]5CCCN5C)nc4c3F)c12` (racemic) [P-0019, 3-((1R,5S)-3-(8-fluoro-7-(8-methylnaphthalen-1-yl)-2-(((RS)-1-methylpyrrolidin-2-yl)methoxy)quinazolin-4-yl)-3,8-diazabicyclo[3.2.1]octan-8-yl)-3-oxopropanenitrile], for which the IC50 was 10 to 100 µM. In the case of `OCC1(COc2nc(N3C[C@H]4CC[C@@H](C3)N4)c3ccc(-c4cc(O)cc5ccccc45)c(F)c3n2)CC(O)C1` (stereo partly drawn) [P-0583, 4-(4-((1R,5S)-3,8-diazabicyclo[3.2.1]octan-3-yl)-8-fluoro-2-((3-hydroxy-1-(hydroxymethyl)cyclobutyl)methoxy)quinazolin-7-yl)naphthalen-2-ol], the IC50 is 0.0001 to 10 µM. For the compound `OCC(COc1nc(N2C[C@H]3CC[C@@H](C2)N3)c2ccc(-c3cc(O)cc4ccccc34)c(F)c2n1)c1ccccc1` (stereo partly drawn) [P-0584, 4-(4-((1R,5S)-3,8-diazabicyclo[3.2.1]octan-3-yl)-8-fluoro-2-(3-hydroxy-2-phenylpropoxy)quinazolin-7-yl)naphthalen-2-ol], the IC50 was 0.0001 to 10 µM. Same read-out and setting: under `CC(C)(C)C(CO)COc1nc(N2C[C@H]3CC[C@@H](C2)N3)c2ccc(-c3cc(O)cc4ccccc34)c(F)c2n1` (stereo partly drawn) [P-0585, 4-(4-((1R,5S)-3,8-diazabicyclo[3.2.1]octan-3-yl)-8-fluoro-2-(2-(hydroxymethyl)-3,3-dimethylbutoxy)quazolin-7-yl)naphthalen-2-ol] stands 0.0001 to 10 µM; under `CC(C)C(CO)COc1nc(N2C[C@H]3CC[C@@H](C2)N3)c2ccc(-c3cc(O)cc4ccccc34)c(F)c2n1` (stereo partly drawn) [P-0586, 4-(4-((1R,5S)-3,8-diazabicyclo[3.2.1]octan-3-yl)-8-fluoro-2-(2-(hydroxymethyl)-3-methylbutoxy)quinazolin-7-yl)naphthalen-2-ol], 0.0001 to 10 µM. Regarding `OCC1(CNc2nc(N3C[C@H]4CC[C@@H](C3)N4)c3ccc(-c4cc(O)cc5ccccc45)c(F)c3n2)CCC1` [P-0587, 4-(4-((1R,5S)-3,8-diazabicyclo[3.2.1]octan-3-yl)-8-fluoro-2-(((1-(hydroxymethyl)cyclobutyl)methyl)amino)quinazolin-7-yl)naphthalen-2-ol], the IC50 was 0.0001 to 10 µM. On to `OCC1(COc2nc(N3C[C@H]4CC[C@@H](C3)N4)c3ccc(-c4cc(O)cc5ccccc45)c(F)c3n2)CCCC1` [P-0588, 4-(4-((1R,5S)-3,8-diazabicyclo[3.2.1]octan-3-yl)-8-fluoro-2-((1-(hydroxymethyl)cyclopentyl)methoxy)quinazolin-7-yl)naphthalen-2-ol], for which the IC50 lay within 0.0001 to 10 µM. Same read-out and setting: in the case of `CN(C)CC(C)(C)COc1nc(N2C[C@H]3CC[C@@H](C2)N3)c2ccc(-c3cc(O)cc4ccccc34)c(F)c2n1` [P-0589, 4-(4-((1R,5S)-3,8-diazabicyclo[3.2.1]octan-3-yl)-2-(3-(dimethylamino)-2,2-dimethylpropoxy)-8-fluoroquinazolin-7-yl)naphthalen-2-ol] it was 0.0001 to 10 µM; in that of `CC(C)(CNS(C)(=O)=O)COc1nc(N2C[C@H]3CC[C@@H](C2)N3)c2ccc(-c3cc(O)cc4ccccc34)c(F)c2n1` [P-0590, N-(3-((4-((1R,5S)-3,8-diazabicyclo[3.2.1]octan-3-yl)-8-fluoro-7-(3-hydroxynaphthalen-1-yl)quinazolin-2-yl)oxy)-2,2-dimethylpropyl)methanesulfonamide], 0.0001 to 10 µM; in that of `CC(=O)NCC(C)(C)COc1nc(N2C[C@H]3CC[C@@H](C2)N3)c2ccc(-c3cc(O)cc4ccccc34)c(F)c2n1` [P-0591, N-(3-((4-((1R,5S)-3,8-diazabicyclo[3.2.1]octan-3-yl)-8-fluoro-7-(3-hydroxynaphthalen-1-yl)quinazolin-2-yl)oxy)-2,2-dimethylpropyl)acetamide], 0.0001 to 10 µM. Same read-out and setting: in the case of `CC(C)(CNC(=O)OCc1ccccc1)COc1nc(N2C[C@H]3CC[C@@H](C2)N3)c2ccc(-c3cc(O)cc4ccccc34)c(F)c2n1` [P-0592, benzyl (3-((4-((1R,5S)-3,8-diazabicyclo[3.2.1]octan-3-yl)-8-fluoro-7-(3-hydroxynaphthalen-1-yl)quinazolin-2-yl)oxy)-2,2-dimethylpropyl)carbamate] it was 0.0001 to 10 µM; in that of `Cc1ccc2[nH]ncc2c1-c1c(F)cc2c(N3C[C@H]4CC[C@@H](C3)N4)nc(OCC34CCCN3CCC4)nc2c1F` [P-0593, 4-((1R,5S)-3,8-diazabicyclo[3.2.1]octan-3-yl)-6,8-difluoro-7-(5-methyl-1H-indazol-4-yl)-2-((tetrahydro-1H-pyrrolizin-7a(5H)-yl)methoxy)quinazoline], 0.0001 to 10 µM. On the same count and under the same terms, in the case of `CC(=O)Nc1ccc(Cl)c(-c2c(F)cc3c(N4C[C@H]5CC[C@@H](C4)N5)nc(OCC45CCCN4CCC5)nc3c2F)c1` [P-0594, N-(3-(4-((1R,5S)-3,8-diazabicyclo[3.2.1]octan-3-yl)-6,8-difluoro-2-((tetrahydro-1H-pyrrolizin-7a(5H)-yl)methoxy)quinazolin-7-yl)-4-chlorophenyl)acetamide] it was 0.0001 to 10 µM. As to `Nc1ccc(Cl)c(-c2c(F)cc3c(N4C[C@H]5CC[C@@H](C4)N5)nc(OCC45CCCN4CCC5)nc3c2F)c1` [P-0595, 3-(4-((1R,5S)-3,8-diazabicyclo[3.2.1]octan-3-yl)-6,8-difluoro-2-((tetrahydro-1H-pyrrolizin-7a(5H)-yl)methoxy)quinazolin-7-yl)-4-chloroaniline], the 50% inhibitory concentration (IC50) is 0.0001 to 10 µM. In the case of `Cc1ccc(N)cc1-c1c(F)cc2c(N3C[C@H]4CC[C@@H](C3)N4)nc(OCC34CCCN3CCC4)nc2c1F` [P-0596, 3-(4-((1R,5S)-3,8-diazabicyclo[3.2.1]octan-3-yl)-6,8-difluoro-2-((tetrahydro-1H-pyrrolizin-7a(5H)-yl)methoxy)quinazolin-7-yl)-4-methylaniline], the IC50 was 0.0001 to 10 µM.

For `CCCc1cccc2[nH]cc(-c3ccc4c(N5C[C@H]6CC[C@@H](C5)N6)nc(OCC56CCCN5CCC6)nc4c3F)c12` [P-0598, 4-((1R,5S)-3,8-diazabicyclo[3.2.1]octan-3-yl)-8-fluoro-7-(4-propyl-1H-indol-3-yl)-2-((tetrahydro-1H-pyrrolizin-7a(5H)-yl)methoxy)quinazoline], the IC50 fell in the range of 0.0001 to 10 µM. Still for that read-out and setting: in the case of `Oc1cc(-c2ccc3c(N4C[C@H]5CC[C@@H](C4)N5)nc(N4CC5(CCNC5)C4)nc3c2F)c2ccccc2c1` [P-0599] it was 0.0001 to 10 µM; in that of `Oc1cc(-c2ccc3c(N4C[C@H]5CC[C@@H](C4)N5)nc(N4CC5(CCCNC5)C4)nc3c2F)c2ccccc2c1` [P-0600, 4-(4-((1R,5S)-3,8-diazabicyclo[3.2.1]octan-3-yl)-8-fluoro-2-(2,6-diazaspiro[3.5]nonan-2-yl)quinazolin-7-yl)naphthalen-2-ol], 0.0001 to 10 µM; in that of `CNC1CN(c2nc(N3C[C@H]4CC[C@@H](C3)N4)c3ccc(-c4cc(O)cc5ccccc45)c(F)c3n2)C1` [P-0601, 4-(4-((1R,5S)-3,8-diazabicyclo[3.2.1]octan-3-yl)-8-fluoro-2-(3-(methylamino)azetidin-1-yl)quinazolin-7-yl)naphthalen-2-ol], 0.0001 to 10 µM. Still for that read-out and setting: under `Oc1cc(-c2ccc3c(N4C[C@H]5CC[C@@H](C4)N5)nc(N4CC(N5CCC(O)C5)C4)nc3c2F)c2ccccc2c1` (stereo partly drawn) [P-0602, 1-(1-(4-((1R,5S)-3,8-diazabicyclo[3.2.1]octan-3-yl)-8-fluoro-7-(3-hydroxynaphthalen-1-yl)quinazolin-2-yl)azetidin-3-yl)pyrrolidin-3-ol] stands 0.0001 to 10 µM; under `Cc1nccc2[nH]cc(-c3ccc4c(N5C[C@H]6CC[C@@H](C5)N6)nc(OCC56CCCN5CCC6)nc4c3F)c12` [P-0605, 4-((1R,5S)-3,8-diazabicyclo[3.2.1]octan-3-yl)-8-fluoro-7-(4-methyl-1H-pyrrolo[3,2-c]pyridin-3-yl)-2-((tetrahydro-1H-pyrrolizin-7a(5H)-yl)methoxy)quinazoline], 10 to 100 µM.

For the compound `OCCCc1cccc2[nH]cc(-c3ccc4c(N5C[C@H]6CC[C@@H](C5)N6)nc(OCC56CCCN5CCC6)nc4c3F)c12` [P-0606, 3-(3-(4-((1R,5S)-3,8-diazabicyclo[3.2.1]octan-3-yl)-8-fluoro-2-((tetrahydro-1H-pyrrolizin-7a(5H)-yl)methoxy)quinazolin-7-yl)-1H-indol-4-yl)propan-1-ol], the IC50 was 0.0001 to 10 µM. Same read-out and setting: under `Nc1ccc(F)c(-c2c(F)cc3c(N4C[C@H]5CC[C@@H](C4)N5)nc(OCC45CCCN4CCC5)nc3c2F)c1` [P-0608, 3-(4-((1R,5S)-3,8-diazabicyclo[3.2.1]octan-3-yl)-6,8-difluoro-2-((tetrahydro-1H-pyrrolizin-7a(5H)-yl)methoxy)quinazolin-7-yl)-4-fluoroaniline] stands 0.0001 to 10 µM.

In a further assay the target is T2, G12V-mutant human KRAS (amino acid residues 1-188) (Homo sapiens, UniProt P01116, G12V).
T2 construct: G12V-mutant human KRAS (amino acid residues 1-188) with FLAG tag was purified from E. coli; made in house; host or cells: E. coli
Description: KRAS Binding Competition Assay (AlphaScreen; biotinylated KRpep-2d analogue), G12V. Particulars: geometric mean, read-out: KRAS GMean IC50 (uM) MUTATION: G12V. As to the method:
Compound binding disrupts the interaction of KRpep-2d with KRAS, leading to a decrease in Alpha signal.
All assay components were prepared in 20 mM HEPES (pH 7.5), 100 mM NaCl, 5 mM MgCl2, 0.01% Tween-20, and 0.01% BSA. Biotinylated analogues of KRpep-2d were custom synthesized. The binding competition assays were performed using 10 nM of mutant KRAS and 10 nM of biotinylated KRpep-2d analogue. 19 μL of KRAS protein and 4 μL of biotinylated KRpep-2d were added to the wells of a 384-well plate containing 1 μL of various concentrations of test compound or DMSO vehicle. 16 wells containing KRAS, biotinylated KRpep-2d, and 5% DMSO served as high controls. 16 wells containing KRAS only and 5% DMSO served as low controls. Binding reactions were incubated for 1 hour at 25° C., then Anti-Flag Acceptor and Streptavidin Donor Alpha beads were added at a final concentration of 10 μg/mL for an additional hour at room temperature. Alpha signal was read out on a Perkin Elmer Envision HTS instrument. The percentage inhibition at individual compound concentrations relative to high and low controls was calculated. The data were analyzed by using nonlinear regression to generate IC50 values.
With `Cc1cccc2cccc(-c3ccc4c(N5CC6CCC(C5)N6C(=O)CC#N)nc(OC[C@@H]5CCCN5C)nc4c3F)c12` (racemic) [P-0019, 3-((1R,5S)-3-(8-fluoro-7-(8-methylnaphthalen-1-yl)-2-(((RS)-1-methylpyrrolidin-2-yl)methoxy)quinazolin-4-yl)-3,8-diazabicyclo[3.2.1]octan-8-yl)-3-oxopropanenitrile], the IC50 is 10 to 100 µM.

In general, IC50 refers to the point on the concentration scale where inhibition reaches its midpoint.
